In ChEMBL document CHEMBL1152560, “Substituted 2-arylbenzothiazoles as kinase inhibitors: hit-to-lead optimization” (Bioorg Med Chem, 2009):

Assays:
[1] = molecular target: Homeodomain-interacting protein kinase 3 (Homo sapiens) (UniProt Q9H422); experiment: Residual activity of HIPK3 at 0.1 uM by microplate scintillation counting
[2] = molecular target: Wee1-like protein kinase (Homo sapiens) (UniProt P30291); experiment: Residual activity of WEE1 at 0.1 uM by microplate scintillation counting
Wee1-like protein kinase (Homo sapiens), sequence (P30291 whole entry, looked up): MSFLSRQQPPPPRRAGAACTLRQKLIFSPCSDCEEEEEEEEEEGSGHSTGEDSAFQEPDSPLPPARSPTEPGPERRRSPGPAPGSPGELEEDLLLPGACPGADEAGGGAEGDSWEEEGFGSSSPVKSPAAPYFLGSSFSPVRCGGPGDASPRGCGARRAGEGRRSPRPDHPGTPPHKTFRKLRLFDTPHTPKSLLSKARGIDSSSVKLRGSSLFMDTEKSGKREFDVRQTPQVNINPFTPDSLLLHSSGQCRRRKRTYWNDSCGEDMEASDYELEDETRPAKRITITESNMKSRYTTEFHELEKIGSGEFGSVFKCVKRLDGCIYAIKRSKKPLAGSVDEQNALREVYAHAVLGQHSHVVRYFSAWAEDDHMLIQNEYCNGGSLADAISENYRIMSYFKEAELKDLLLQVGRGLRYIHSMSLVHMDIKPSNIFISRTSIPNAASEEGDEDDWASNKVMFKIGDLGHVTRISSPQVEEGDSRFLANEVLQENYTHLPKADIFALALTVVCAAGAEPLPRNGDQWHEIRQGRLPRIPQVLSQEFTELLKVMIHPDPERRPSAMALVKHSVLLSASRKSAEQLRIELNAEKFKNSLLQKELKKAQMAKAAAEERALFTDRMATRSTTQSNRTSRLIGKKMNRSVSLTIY

[3] = molecular target: Tyrosine-protein kinase ABL1 (Homo sapiens) (UniProt P00519); experiment: Residual activity of wild type ABL1 at 1 uM by microplate scintillation counting
Tyrosine-protein kinase ABL1 (Homo sapiens), sequence (P00519 whole entry): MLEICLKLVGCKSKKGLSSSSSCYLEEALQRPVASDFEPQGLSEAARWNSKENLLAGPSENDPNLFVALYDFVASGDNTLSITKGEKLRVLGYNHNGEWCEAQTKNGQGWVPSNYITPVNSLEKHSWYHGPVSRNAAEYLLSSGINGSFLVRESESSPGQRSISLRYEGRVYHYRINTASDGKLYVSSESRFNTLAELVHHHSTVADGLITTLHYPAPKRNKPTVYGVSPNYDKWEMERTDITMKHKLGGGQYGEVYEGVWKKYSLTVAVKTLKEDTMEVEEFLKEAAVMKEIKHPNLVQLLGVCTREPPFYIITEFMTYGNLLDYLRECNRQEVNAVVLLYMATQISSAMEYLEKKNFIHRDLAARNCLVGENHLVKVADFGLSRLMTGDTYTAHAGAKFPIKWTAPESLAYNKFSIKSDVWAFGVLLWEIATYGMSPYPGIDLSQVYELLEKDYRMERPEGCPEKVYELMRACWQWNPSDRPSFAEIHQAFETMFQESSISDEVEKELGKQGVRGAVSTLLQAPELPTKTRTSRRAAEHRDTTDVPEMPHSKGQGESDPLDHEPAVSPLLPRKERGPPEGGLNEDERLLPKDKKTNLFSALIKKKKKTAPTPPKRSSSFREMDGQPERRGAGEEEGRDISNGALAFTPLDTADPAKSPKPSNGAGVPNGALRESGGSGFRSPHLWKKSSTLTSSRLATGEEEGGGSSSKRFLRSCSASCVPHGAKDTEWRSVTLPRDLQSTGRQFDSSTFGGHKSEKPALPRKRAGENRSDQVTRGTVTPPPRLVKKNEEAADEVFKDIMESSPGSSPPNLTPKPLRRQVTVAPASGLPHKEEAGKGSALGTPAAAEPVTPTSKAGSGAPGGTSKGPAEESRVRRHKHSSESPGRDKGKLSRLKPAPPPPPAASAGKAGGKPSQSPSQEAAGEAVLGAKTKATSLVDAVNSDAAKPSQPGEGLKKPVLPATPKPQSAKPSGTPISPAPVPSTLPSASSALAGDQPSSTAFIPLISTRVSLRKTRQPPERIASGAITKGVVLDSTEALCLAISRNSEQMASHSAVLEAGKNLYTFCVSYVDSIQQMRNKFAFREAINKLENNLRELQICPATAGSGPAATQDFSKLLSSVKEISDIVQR

[4] = tested on: Epidermal growth factor receptor (Homo sapiens), P00533 [L858R]; experiment: Residual activity of EGFR L858R mutant at 0.1 uM by microplate scintillation counting
[5] = molecular target: Tyrosine-protein kinase BTK (Homo sapiens) (UniProt Q06187); experiment: Residual activity of BTK at 0.1 uM by microplate scintillation counting
Tyrosine-protein kinase BTK (Homo sapiens), sequence (Q06187 whole entry): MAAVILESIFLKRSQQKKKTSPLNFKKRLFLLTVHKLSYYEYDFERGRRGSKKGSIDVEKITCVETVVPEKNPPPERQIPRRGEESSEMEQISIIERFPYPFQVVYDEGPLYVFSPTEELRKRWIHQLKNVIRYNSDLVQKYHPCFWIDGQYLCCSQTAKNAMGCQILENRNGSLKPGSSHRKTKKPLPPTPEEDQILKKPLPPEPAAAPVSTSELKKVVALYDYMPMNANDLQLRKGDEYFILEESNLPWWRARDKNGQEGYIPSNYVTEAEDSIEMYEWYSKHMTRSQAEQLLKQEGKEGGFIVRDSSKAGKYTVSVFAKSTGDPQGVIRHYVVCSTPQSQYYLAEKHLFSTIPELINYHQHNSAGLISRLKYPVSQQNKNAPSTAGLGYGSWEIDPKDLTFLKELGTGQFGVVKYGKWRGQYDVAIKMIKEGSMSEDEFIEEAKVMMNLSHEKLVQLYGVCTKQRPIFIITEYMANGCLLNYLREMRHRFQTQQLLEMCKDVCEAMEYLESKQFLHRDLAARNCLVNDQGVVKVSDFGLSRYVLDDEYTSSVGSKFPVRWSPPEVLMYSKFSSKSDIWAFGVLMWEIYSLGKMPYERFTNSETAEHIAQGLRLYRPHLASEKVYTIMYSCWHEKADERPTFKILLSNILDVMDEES

[6] = molecular target: T1, Serine/threonine-protein kinase D2 (Homo sapiens) (UniProt Q9BZL6); experiment: Residual activity of PRKD2 at 10 uM by microplate scintillation counting
T1 sequence (whole entry): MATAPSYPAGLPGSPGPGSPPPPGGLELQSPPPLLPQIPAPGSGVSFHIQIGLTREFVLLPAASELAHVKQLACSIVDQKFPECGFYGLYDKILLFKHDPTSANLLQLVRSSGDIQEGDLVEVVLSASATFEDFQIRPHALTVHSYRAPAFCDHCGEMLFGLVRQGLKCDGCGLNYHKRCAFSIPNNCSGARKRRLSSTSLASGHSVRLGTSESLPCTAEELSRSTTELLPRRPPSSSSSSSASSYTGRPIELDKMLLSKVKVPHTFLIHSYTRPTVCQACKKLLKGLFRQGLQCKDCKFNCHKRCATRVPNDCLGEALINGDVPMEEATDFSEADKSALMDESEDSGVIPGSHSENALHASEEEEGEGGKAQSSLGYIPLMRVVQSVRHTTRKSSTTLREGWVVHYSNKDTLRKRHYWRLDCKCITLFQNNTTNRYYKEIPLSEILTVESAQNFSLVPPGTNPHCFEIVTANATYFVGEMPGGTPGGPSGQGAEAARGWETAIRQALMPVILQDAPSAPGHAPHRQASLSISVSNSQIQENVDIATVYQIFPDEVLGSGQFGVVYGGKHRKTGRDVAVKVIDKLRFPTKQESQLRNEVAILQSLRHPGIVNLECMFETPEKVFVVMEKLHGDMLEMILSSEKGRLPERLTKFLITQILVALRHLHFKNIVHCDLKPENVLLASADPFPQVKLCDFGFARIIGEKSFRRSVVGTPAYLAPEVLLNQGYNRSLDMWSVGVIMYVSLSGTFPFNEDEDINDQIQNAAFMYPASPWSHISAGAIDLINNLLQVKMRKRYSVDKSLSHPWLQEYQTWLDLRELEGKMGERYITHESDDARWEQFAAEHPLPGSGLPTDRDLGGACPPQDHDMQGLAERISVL

[7] = molecular target: SRSF protein kinase 1 (Homo sapiens) (UniProt Q96SB4); experiment: Residual activity of SRPK1 at 10 uM by microplate scintillation counting
SRSF protein kinase 1 (Homo sapiens), sequence (Q96SB4 whole entry): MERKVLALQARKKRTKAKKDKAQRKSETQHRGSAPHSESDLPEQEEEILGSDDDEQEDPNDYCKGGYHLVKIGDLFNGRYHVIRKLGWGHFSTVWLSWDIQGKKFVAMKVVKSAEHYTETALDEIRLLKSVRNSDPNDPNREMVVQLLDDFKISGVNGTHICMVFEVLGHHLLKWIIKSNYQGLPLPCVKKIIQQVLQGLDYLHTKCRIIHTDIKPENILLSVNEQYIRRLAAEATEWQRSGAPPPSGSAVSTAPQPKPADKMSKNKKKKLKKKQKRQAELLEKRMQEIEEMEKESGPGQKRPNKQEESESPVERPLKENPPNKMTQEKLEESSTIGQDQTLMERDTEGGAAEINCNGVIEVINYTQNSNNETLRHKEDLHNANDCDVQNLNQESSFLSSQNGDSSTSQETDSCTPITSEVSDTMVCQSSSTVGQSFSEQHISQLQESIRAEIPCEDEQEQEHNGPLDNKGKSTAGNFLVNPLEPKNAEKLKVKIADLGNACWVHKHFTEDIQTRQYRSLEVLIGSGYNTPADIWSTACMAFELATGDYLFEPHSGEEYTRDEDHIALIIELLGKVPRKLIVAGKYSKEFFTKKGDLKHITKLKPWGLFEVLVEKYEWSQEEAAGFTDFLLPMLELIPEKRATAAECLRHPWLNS

[8] = molecular target: T2, cGMP-dependent protein kinase 1 (Homo sapiens) (UniProt Q13976); experiment: Residual activity of PRKG1 at 0.1 uM by microplate scintillation counting
T2 sequence (whole entry): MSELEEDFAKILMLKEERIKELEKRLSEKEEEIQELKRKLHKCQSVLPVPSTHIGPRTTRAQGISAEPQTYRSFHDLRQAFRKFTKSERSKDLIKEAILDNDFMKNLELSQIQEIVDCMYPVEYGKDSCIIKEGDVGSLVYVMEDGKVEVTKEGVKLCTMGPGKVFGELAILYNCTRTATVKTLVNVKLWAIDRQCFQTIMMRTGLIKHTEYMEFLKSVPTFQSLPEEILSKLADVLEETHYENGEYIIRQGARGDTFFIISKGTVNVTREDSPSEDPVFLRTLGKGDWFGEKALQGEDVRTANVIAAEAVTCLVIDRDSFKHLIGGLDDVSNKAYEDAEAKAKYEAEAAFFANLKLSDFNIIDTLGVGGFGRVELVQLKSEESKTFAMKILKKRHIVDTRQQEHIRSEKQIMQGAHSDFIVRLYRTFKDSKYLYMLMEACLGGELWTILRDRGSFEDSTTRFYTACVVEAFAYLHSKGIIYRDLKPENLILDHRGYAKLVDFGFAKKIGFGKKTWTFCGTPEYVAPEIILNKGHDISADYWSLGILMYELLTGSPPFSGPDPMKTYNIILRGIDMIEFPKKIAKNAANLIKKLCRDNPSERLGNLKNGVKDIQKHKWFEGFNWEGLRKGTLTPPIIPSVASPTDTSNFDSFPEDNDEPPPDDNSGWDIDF

Homeodomain-interacting protein kinase 3 (Homo sapiens), sequence (Q9H422 whole entry, looked up): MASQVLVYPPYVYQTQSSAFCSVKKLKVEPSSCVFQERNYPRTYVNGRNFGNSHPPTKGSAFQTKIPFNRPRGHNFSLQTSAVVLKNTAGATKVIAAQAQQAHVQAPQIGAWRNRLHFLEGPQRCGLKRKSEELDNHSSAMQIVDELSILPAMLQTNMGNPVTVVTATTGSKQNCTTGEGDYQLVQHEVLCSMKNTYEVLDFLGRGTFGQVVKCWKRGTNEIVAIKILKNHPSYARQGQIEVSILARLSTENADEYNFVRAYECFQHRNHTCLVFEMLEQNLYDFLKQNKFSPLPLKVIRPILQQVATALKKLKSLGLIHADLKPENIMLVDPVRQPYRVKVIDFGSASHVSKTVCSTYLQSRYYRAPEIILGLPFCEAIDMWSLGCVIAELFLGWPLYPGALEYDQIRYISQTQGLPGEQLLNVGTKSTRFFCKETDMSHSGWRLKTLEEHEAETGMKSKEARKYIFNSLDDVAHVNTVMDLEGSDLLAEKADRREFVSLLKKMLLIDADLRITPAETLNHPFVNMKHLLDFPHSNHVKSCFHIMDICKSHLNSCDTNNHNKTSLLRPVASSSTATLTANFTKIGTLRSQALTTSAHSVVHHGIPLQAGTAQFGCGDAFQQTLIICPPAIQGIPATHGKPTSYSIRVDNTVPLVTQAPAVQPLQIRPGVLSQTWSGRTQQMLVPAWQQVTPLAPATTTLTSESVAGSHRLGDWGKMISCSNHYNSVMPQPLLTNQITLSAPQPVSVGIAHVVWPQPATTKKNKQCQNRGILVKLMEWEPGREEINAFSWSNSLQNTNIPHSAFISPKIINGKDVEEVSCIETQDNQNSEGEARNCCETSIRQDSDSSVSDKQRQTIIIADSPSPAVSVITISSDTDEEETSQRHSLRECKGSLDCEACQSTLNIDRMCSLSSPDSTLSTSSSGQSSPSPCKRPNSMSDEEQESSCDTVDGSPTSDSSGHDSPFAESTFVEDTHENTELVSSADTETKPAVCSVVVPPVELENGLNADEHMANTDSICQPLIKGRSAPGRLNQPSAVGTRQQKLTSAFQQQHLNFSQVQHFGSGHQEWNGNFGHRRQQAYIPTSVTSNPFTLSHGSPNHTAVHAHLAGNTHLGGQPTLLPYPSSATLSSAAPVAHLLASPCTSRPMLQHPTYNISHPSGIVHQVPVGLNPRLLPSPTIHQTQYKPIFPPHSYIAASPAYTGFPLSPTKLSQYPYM

residual activity [1] [%]	residual activity [2] [%]	residual activity [3] [%]	residual activity [4] [%]	residual activity [5] [%]	residual activity [6] [%]	residual activity [7] [%]	residual activity [8] [%]	Compound
92	100	100	92	106	136	107	90	COc1cc2c(Oc3ccc(-c4nc5ccccc5s4)cc3)ncnc2cc1OCCCN1CCCC1
88	118	99	93	100	146	98	97	COc1cc2c(Oc3ccc(-c4nc5ccccc5s4)cc3)ncnc2cc1OCCCN1CCN(C)CC1
93	98	110	94	101	128	64	84	COc1cc2c(Oc3ccc(-c4nc5ccccc5s4)cc3F)ncnc2cc1OCCCN1CCN(C)CC1
